Drawing on patent US7939548B2, “Certain chemical entities, compositions, and methods” (Cytokinetics, Inc., priority 2006, dated 2011), this text covers IC50 for 15 compounds.

As usually defined, the IC50 is the point on the concentration scale where inhibition reaches its midpoint.

The target in the assay is T1, chicken gizzard smooth muscle myosin subfragment-1 chemically crosslinked to either cardiac or skeletal actin (Gallus gallus, UniProt P10587).
T1 construct: chicken gizzard smooth muscle myosin subfragment-1
Kind of assay: Smooth muscle myosin ATPase dose response assay (pyruvate kinase/horseradish peroxidase/pyruvate oxidase-coupled). Format: biochemical. Conditions: ATPase activity of crosslinked smooth muscle actomyosin (subfragment-1); amplex red fluorescence; 4 parameter fit; read-out: IC50 Arithmetic Mean. The procedure:
Screening assays were performed using a pyruvate kinase and lactate dehydrogenase-coupled ATPase assay containing the following reagents: Potassium PIPES (50 mM), MgCl2 (3 mM), KCl (100 mM), ATP (0.15 mM), DTT (1 mM), BSA (0.1 mg/ml), NADH (0.5 mM), PEP (1.5 mM), pyruvate kinase (4 U/ml), lactate dehydrogenase (8 U/ml), and antifoam (50 ppm) (concentrations expressed are final assay concentrations). The pH was adjusted to 6.80 at 22 °C by addition of potassium hydroxide. Lead optimization assays were performed with a more sensitive pyruvate kinase/horseradish peroxidase/pyruvate oxidase-coupled ATPase assay containing the following reagents: Potassium PIPES (12 mM), MgCl2 (2 mM), KCl (100 mM), ATP (0.15 mM), BSA (0.05 mg/ml), potassium phosphate (2 mM), amplex red (0.1 mM), PEP (0.1 mM), pyruvate kinase (4 U/ml), horseradish peroxidase (0.5 U/ml), pyruvate oxidase (0.5 U/ml), and antifoam (50 ppm) (concentrations expressed are final assay concentrations). The pH was adjusted to 7.00 at 22 °C by addition of potassium hydroxide.
The protein components specific to this assay are chicken gizzard smooth muscle myosin subfragment-1 that has been chemically crosslinked to either cardiac or skeletal actin using an excess of 1-Ethyl-3-[3-dimethylaminopropyl]carbodiimide hydrochloride and N-hydroxysuccinimide. The exact concentration of the crosslinked smooth muscle myosin in the assay is determined empirically, by titration to achieve a desired rate of ATP hydrolysis. The concentration varies between protein preparations due to variations in the fraction of active molecules in each preparation.
Compound dose response assays are performed by first preparing a dilution series of test compound, each with an assay mixture containing potassium PIPES, MgCl2, KCl, ATP, BSA, potassium phosphate, amplex red, PEP, crosslinked smooth muscle actomyosin (subfragment-1), antifoam, and water. The assay is started by adding an equal volume of solution containing potassium Pipes, MgCl2, KCl, BSA, potassium phosphate, pyruvate kinase, horseradish peroxidase, pyruvate oxidase, antifoam, and water. ATP hydrolysis is monitored by measuring the fluorescence of amplex red (excitation at 480 nm, emission at 615 nm). The resulting dose response curve is fit by the 4 parameter equation y=Bottom+((Top-Bottom)/(1+((IC50/X)^Hill))). The IC50 is defined as the concentration at which ATPase activity is midway between the top and bottom of the dose response curve.
In the case of `CC(=O)N(CCO)c1ccc(C(=O)NCc2cccnc2)c(NCCc2cccc(F)c2)n1` [N-(6-{[2-(3-fluorophenyl)ethyl]amino}-5-[N-(3-pyridylmethyl)carbamoyl](2-pyridyl))-N-(2-hydroxyethyl)acetamide], the IC50 was determined as 53.4 µM. Turning to `CC(=O)N(C)c1ccc(C(=O)NCc2cccnc2)c(NCCc2cccc(F)c2)n1` [N-(6-{[2-(3-fluorophenyl)ethyl]amino}-5-[N-(3-pyridylmethyl)carbamoyl](2-pyridyl))-N-methylacetamide], the IC50 was 33.5 µM. In the case of `O=C(NCc1cccc(CN2C(=O)c3ccccc3C2=O)n1)c1cc(Br)cnc1NCCc1cccc(F)c1` [N-({6-[(1,3-dioxobenzo[c]azolin-2-yl)methyl](2-pyridyl)}methyl)(5-bromo-2-{[2-(3-fluorophenyl)ethyl]amino}(3-pyridyl))carboxamide] it was 9.72 µM.

For the compound `NCc1ncccc1CNC(=O)c1cc(F)cnc1NCCc1cccc(F)c1` [N-{[2-(aminomethyl)(3-pyridyl)]methyl}(5-fluoro-2-{[2-(3-fluorophenyl)ethyl]amino}(3-pyridyl))carboxamide], the 50% inhibitory concentration (IC50) came out at 2.69 µM. Then `Cn1cc(-c2cnc(NCCc3cccc(F)c3)c(C(=O)NCc3cccc(CN)n3)c2)cn1` [N-{[6-(aminomethyl)(2-pyridyl)]methyl}(2-{[2-(3-fluorophenyl)ethyl]amino}-5-(1-methylpyrazol-4-yl)(3-pyridyl))carboxamide], with 17.7 µM; and `NCc1cccc(CNC(=O)c2cc(-c3ccccn3)cnc2NCCc2cccc(F)c2)n1` [N-{[6-(aminomethyl)(2-pyridyl)]methyl}(2-{[2-(3-fluorophenyl)ethyl]amino}-5-(2-pyridyl)(3-pyridyl))carboxamide], with 16 µM. Then `NCc1cccc(CNC(=O)c2cc(-c3cccnc3)cnc2NCCc2cccc(F)c2)n1` [N-{[6-(aminomethyl)(2-pyridyl)]methyl}(2-{[2-(3-fluorophenyl)ethyl]amino}-5-(3-pyridyl)(3-pyridyl))carboxamide], with 7.39 µM; and `NCc1cccc(CNC(=O)c2cc(-c3ccncc3)cnc2NCCc2cccc(F)c2)n1` [N-{[6-(aminomethyl)(2-pyridyl)]methyl}(2-{[2-(3-fluorophenyl)ethyl]amino}-5-(4-pyridyl)(3-pyridyl))carboxamide], with 9.84 µM; and `N#Cc1ccccc1-c1cnc(NCCc2cccc(F)c2)c(C(=O)NCc2cccc(CN)n2)c1` [N-{[6-(aminomethyl)(2-pyridyl)]methyl}(5-(2-cyanophenyl)-2-{[2-(3-fluorophenyl)ethyl]amino}(3-pyridyl))carboxamide], with 6.03 µM.

Turning to `NCc1cccc(CNC(=O)c2cc(Br)cnc2NCCc2cccc(F)c2)n1` [N-{[6-(aminomethyl)(2-pyridyl)]methyl}(5-bromo-2-{[2-(3-fluorophenyl)ethyl]amino}(3-pyridyl))carboxamide], the IC50 stood at 15 µM. As for `CCOC(=O)c1ccc(C(=O)NCc2cccnc2)c(NCCc2cccc(F)c2)n1` [ethyl 6-{[2-(3-fluorophenyl)ethyl]amino}-5-[N-(3-pyridylmethyl)carbamoyl]pyridine-2-carboxylate], the IC50 came to 2.65 µM. For the compound `COC(=O)c1cc(C#N)cnc1NCCc1cccc(F)c1` [methyl 5-cyano-2-{[2-(3-fluorophenyl)ethyl]amino}pyridine-3-carboxylate], the IC50 worked out at 14.9 µM.

As for `COC(=O)c1ccc(NCCCCC(N)=O)nc1NCCc1cccc(F)c1` [methyl 6-[(4-carbamoylbutyl)amino]-2-{[2-(3-fluorophenyl)ethyl]amino}pyridine-3-carboxylate], the IC50 turned out to be 44.3 µM. Consider `COC(=O)c1ccc(C(=O)NCc2cccnc2)c(NCCc2cccc(F)c2)n1` [methyl 6-{[2-(3-fluorophenyl)ethyl]amino}-5-[N-(3-pyridylmethyl)carbamoyl]pyridine-2-carboxylate], for which the IC50 was 4.35 µM.

For `COC(=O)/C=C(\C)c1ccc(C(=O)NCc2cccnc2)c(NCCc2cccc(F)c2)n1` [methyl (2E)-3-(6-{[2-(3-fluorophenyl)ethyl]amino}-5-[N-(3-pyridylmethyl)carbamoyl](2-pyridyl))but-2-enoate], the IC50 was 3.45 µM.
